Each block holds one compound with its values, some of them ahead of it.
Test: solvent given as SMILES

Compound: Cc1ccc2c(nc3c(=O)n(C)c(=O)nc-3n2C)c1C
fluorescence lifetime (in CC#N): 3.9 ns

Compound: N#C/C(=C(/C#N)c1ccc(-c2ccncc2)cc1)c1ccc(-c2ccncc2)cc1
fluorescence lifetime (in ClCCl): 0.1 ns

Compound: COc1ccc(C#Cc2ccc(-c3nn[nH]n3)cc2)cc1OC
fluorescence lifetime (in C1CCOC1): 0.94 ns | fluorescence lifetime (in C1COCCO1): 0.81 ns | fluorescence lifetime (in CC#N): 0.46 ns | fluorescence lifetime (in CCOC(C)=O): 0.86 ns | fluorescence lifetime (in CS(C)=O): 0.66 ns | fluorescence lifetime (in Cc1ccccc1): 0.73 ns

Compound: CN(C)c1ccc2nc(/C=C/c3cc4c5c(c3)CCCN5CCC4)c(=O)oc2c1
fluorescence lifetime (in C1COCCO1): 2.9 ns | fluorescence lifetime (in CC#N): 0.22 ns | fluorescence lifetime (in CC(C)=O): 0.8 ns | fluorescence lifetime (in CCCCCCC): 2.02 ns | fluorescence lifetime (in CCOC(C)=O): 2.4 ns | fluorescence lifetime (in CN(C)C=O): 0.18 ns | fluorescence lifetime (in CS(C)=O): 0.32 ns | fluorescence lifetime (in Cc1ccccc1): 2.6 ns | fluorescence lifetime (in ClC(Cl)Cl): 1.35 ns | fluorescence lifetime (in ClCCl): 1.35 ns

Compound: Cc1cc(C)cc(C)c1
fluorescence lifetime (in C1CCCCC1): 73 ns

Compound: Cc1ccccc1-c1cc(-c2ccc(N3c4ccccc4C(C)(C)c4ccccc43)cc2)nc(-c2ccccc2)n1
fluorescence lifetime (in Cc1ccccc1): 2.76 ns | fluorescence lifetime (in ClCCl): 22.7 ns

Compound: CCCCN1C(=O)c2cc(Oc3ccc(C(C)(C)C)cc3)c3c4c(Oc5ccc(C(C)(C)C)cc5)cc5c(=O)n6c(c7cc(Oc8ccc(C(C)(C)C)cc8)c(c8c(Oc9ccc(C(C)(C)C)cc9)cc(c2c38)C1=O)c4c57)=Cc1cccc[n+]1[B-]6(F)F
fluorescence lifetime (in C1CCOC1): 3.79 ns | fluorescence lifetime (in Cc1ccccc1): 4.1 ns | fluorescence lifetime (in ClCCl): 4.51 ns

Compound: N#Cc1ccc(C2=CC3=c4cc(-c5ccc(C#N)cc5)c5nc(C(F)(F)C(F)(F)C(F)(F)F)nc6c(-c7ccc(C#N)cc7)cc(c4c65)C4=CC(c5ccc(C#N)cc5)=C5N=C(C(F)(F)C(F)(F)C(F)(F)F)N=C2C5C43)cc1 (stereo not drawn)
fluorescence lifetime (in C1CCOC1): 2.8 ns

Compound: Cc1ccc(-c2cc(-c3ccccc3)c(C#N)c(=S)[nH]2)cc1
fluorescence lifetime (in CC#N): 4.92 ns | fluorescence lifetime (in CCO): 4.79 ns | fluorescence lifetime (in ClC(Cl)(Cl)Cl): 1.22 ns

Compound: CC1(C)c2ccccc2N(c2ccccc2)c2ccc(C(=O)c3ccc4c(c3)C(C)(C)c3ccccc3N4c3ccccc3)cc21
fluorescence lifetime (in O=P(c1ccccc1)(c1ccccc1)c1ccccc1Oc1ccccc1P(=O)(c1ccccc1)c1ccccc1): 0.81 ns

Compound: CC[N+](CC)=c1ccc2c(-c3ccccc3C(=O)O)c3cc4c(-c5ccccc5C(=O)O)c5ccc(=[N+](CC)CC)cc-5oc4cc3oc-2c1
fluorescence lifetime (in ClC(Cl)Cl): 0.72 ns

Compound: Cc1nnc(-c2cc(-n3c4ccccc4c4ccccc43)c(-n3c4ccccc4c4ccccc43)cc2-c2nnc(C)o2)o1
fluorescence lifetime (in Cc1ccccc1): 14.5 ns

Compound: FC(F)(F)c1ccc(/C=C/c2ccc(-c3nnc(-c4ccc(-c5cc6ccccc6s5)cc4)o3)cc2)cc1
fluorescence lifetime (in Cc1ccccc1): 0.57 ns | fluorescence lifetime (in ClC(Cl)Cl): 0.7 ns

Compound: N#Cc1c(-n2c3ccccc3c3ccccc32)c(-n2c3ccccc3c3ccccc32)c(-n2c3ccccc3c3ccccc32)c(-n2c3ccc(-c4ccccc4)cc3c3cc(-c4ccccc4)ccc32)c1-n1c2ccccc2c2ccccc21
fluorescence lifetime (in Cc1ccccc1): 7 ns

Compound: CC1(C)c2ccccc2N(c2ccc3c(c2)c2cc(N4c5ccccc5C(C)(C)c5ccccc54)ccc2c2nc(C#N)c(C#N)nc32)c2ccccc21
fluorescence lifetime (in O=P(c1ccccc1)(c1ccccc1)c1cccc(-c2cc(-n3c4ccccc4c4ccccc43)cc(-n3c4ccccc4c4ccccc43)c2)n1): 53.7 ns

Now from value to compound:

fluorescence lifetime (in CC(C)O): 4.36 ns | fluorescence lifetime (in CCCCCCCCO): 4.52 ns | fluorescence lifetime (in CCCCCCO): 4.48 ns | fluorescence lifetime (in CCCCO): 4.4 ns | fluorescence lifetime (in CCCO): 4.42 ns | fluorescence lifetime (in CCO): 4.25 ns | fluorescence lifetime (in CO): 4.28 ns | fluorescence lifetime (in O): 4.16 ns | fluorescence lifetime (in [2H]O[2H]): 4.36 ns
Compound: O=C([O-])c1ccccc1-c1c2ccc(=O)cc-2oc2cc([O-])ccc12

fluorescence lifetime (in ClC(Cl)Cl): 1.3 ns
Compound: Cc1cc(=O)oc2cc3c4ccc(C(C)(C)C)cc4c4cc(C(C)(C)C)ccc4c3cc12

fluorescence lifetime (in CC#N): 1.23 ns
Compound: COc1ccc2cc(/C=C/c3ccc([N+](=O)[O-])cc3)c(=O)oc2c1

fluorescence lifetime (in C1CCCCC1): 8 ns
Compound: C[Si](C)(C)c1cccc2c(C#N)cccc12

fluorescence lifetime (in CC#N): 2.25 ns
Compound: CCN(CC)c1ccc2cc(/C=C/c3ccccc3)c(=O)oc2c1

fluorescence lifetime (in C1CCCCC1): 0.49 ns
Compound: COC(=O)c1nc(Br)c(-c2ccccc2)o1

fluorescence lifetime (in CC#N): 2.8 ns
Compound: CCN(CC)c1ccc2cc(-c3nc4ccccc4n3C)c(=O)oc2c1

fluorescence lifetime (in ClCCl): 0.77 ns
Compound: CCCCCCC1(CCCCCC)c2ccccc2-c2ccc(-c3ccc(-c4cc(-c5ccccn5)nc(-c5ccccn5)c4)cc3)cc21

fluorescence lifetime (in C1CCCCC1): 2.4 ns | fluorescence lifetime (in CC#N): 3.5 ns | fluorescence lifetime (in ClCCl): 3.3 ns
Compound: O=S1c2ccccc2-c2cc(-c3c4ccccc4cc4ccccc34)ccc21 (stereo not drawn)

fluorescence lifetime (in ClCCl): 5.4 ns
Compound: CCCCCCOc1cc(C=C2C(=O)c3ccccc3C2=O)c(OCCCCCC)cc1C=C1C(=O)c2ccccc2C1=O

fluorescence lifetime (in C1CCCCC1): 8.8 ns | fluorescence lifetime (in CC#N): 2.2 ns | fluorescence lifetime (in c1ccccc1): 8.4 ns
Compound: CNc1cccc2c1-c1ccccc1C2=O

fluorescence lifetime (in CCOC(C)=O): 2.55 ns
Compound: O=Cc1cc2c(cc3ccc4cccc5ccc2c3c45)[nH]1

fluorescence lifetime (in CC#N): 0.22 ns | fluorescence lifetime (in CO): 0.19 ns | fluorescence lifetime (in O): 0.18 ns
Compound: CN(C)CCCN1c2ccccc2CCc2ccc(Cl)cc21

fluorescence lifetime (in ClC(Cl)Cl): 2.74 ns
Compound: Cc1cc(C2=Cc3cccc[n+]3[B-](F)(F)O2)ccc1N(C)C

Reference: the Deep4Chem optical property database
